Molecules are shown by their SMILES.

The target in this experiment is T1, human P2Y12 receptor (Homo sapiens, UniProt Q9H244).
T1 construct: expressed in transfected cells; host or cells: Chinese Hamster Ovary (CHO) cells
T1 sequence (Q9H244 whole entry): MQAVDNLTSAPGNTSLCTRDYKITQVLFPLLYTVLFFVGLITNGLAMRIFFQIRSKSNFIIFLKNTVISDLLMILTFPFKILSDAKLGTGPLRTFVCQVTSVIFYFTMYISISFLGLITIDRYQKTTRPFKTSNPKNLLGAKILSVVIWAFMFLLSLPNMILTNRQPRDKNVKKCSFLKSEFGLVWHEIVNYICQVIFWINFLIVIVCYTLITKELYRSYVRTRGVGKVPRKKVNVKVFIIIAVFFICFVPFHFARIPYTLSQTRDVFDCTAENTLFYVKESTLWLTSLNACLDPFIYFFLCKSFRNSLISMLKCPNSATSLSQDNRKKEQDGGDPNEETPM
Nature of the experiment: P2Y12 receptor binding assay. The following applies: CHO cells with recombinant human P2Y12 receptor; tritium-labeled 2-methyl-S-ADP; 2 hours at RT. On the procedure:
Chinese Hamster Ovary (CHO) cells with recombinant expression of the human P2Y12 receptor were cultured in 24 well cell-culture plates. Cells were washed three times with binding buffer (50 mM Tris pH 7.4, 100 mM NaCl, […], 0.5% BSA). The cells were then incubated with 0.5 ml per well binding buffer containing tritium-labeled 2-methyl-thio-adenosine 5′-diphosphate (2-methyl-S-ADP) (between 100,000 and 300,000 dpm per well) and various concentrations of test compounds. After incubation at RT for 2 hours, cells were washed three times with binding buffer. Then, cells were solubilized by addition of 0.5 ml solubilization buffer (SDS, NaOH, EDTA). The content of each well was then transferred into beta-counter vials and 2.0 ml of Ultima Gold Scintillation liquid was added.
For the molecule `CCCCOC(=O)N1CCN(C(=O)[C@H](CP2(=O)Nc3ccccc3CO2)NC(=O)c2cc(N3CC[C@H](OC)C3)nc(-c3ccccc3)n2)CC1` (mixture of isomers) [Example 103, 4-[(R)-2-{[6-((S)-3-Methoxy-pyrrolidin-1-yl)-2-phenyl-pyrimidine-4-carbonyl]-amino}-3-(2-oxo-1,4-dihydro-2H-2λ^5-benzo[d][1,3,2]oxazaphosphinin-2-yl)-propionyl]-piperazine-1-carboxylic acid butyl ester], the IC50 was 3.1 nM.

Take `CCCCOC(=O)N1CCN(C(=O)[C@H](CP2(=O)OCc3cccc(C)c3O2)NC(=O)c2cc(N3CC[C@H](OC)C3)nc(-c3ccccc3)n2)CC1` (mixture of isomers) [Example 110, 4-[(R)-2-{[6-((S)-3-Methoxy-pyrrolidin-1-yl)-2-phenyl-pyrimidine-4-carbonyl]-amino}-3-(8-methyl-2-oxo-4H-2λ^5-benzo[1,3,2]dioxaphosphinin-2-yl)-propionyl]-piperazine-1-carboxylic acid butyl ester]: the IC50 worked out at 2.8 nM.

Regarding `CCCCOC(=O)N1CCN(C(=O)[C@H](CP(=O)(O)OCOC(C)=O)NC(=O)c2cc(N3CC[C@H](OC)C3)nc(-c3ccccc3)n2)CC1` (mixture of isomers) [Example 115, 4-((R)-3-(Acetoxymethoxy-hydroxy-phosphoryl)-2-{[6-((S)-3-methoxy-pyrrolidin-1-yl)-2-phenyl-pyrimidine-4-carbonyl]-amino}-propionyl)-piperazine-1-carboxylic acid butyl ester], the IC50 was 5 nM.

As to `CCCCOC(=O)N1CCN(C(=O)[C@H](CCP(=O)(O)O)NC(=O)c2cc(-n3cccn3)nc(-c3ccccc3)n2)CC1` [Example 7, 4-{(S)-2-[(2-phenyl-6-pyrazol-1-yl-pyrimidine-4-carbonyl)-amino]-4-phosphono-butyryl}-piperazine-1-carboxylic acid butyl ester], the IC50 turned out to be 3.2 nM.

Regarding `CCCCOC(=O)N1CCN(C(=O)[C@H](CCP(=O)(O)O)NC(=O)c2cc(N3CCOCC3)nc(-c3ccccc3)n2)CC1` [Example 12, 4-{(S)-2-[(6-morpholin-4-yl-2-phenyl-pyrimidine-4-carbonyl)-amino]-4-phosphono-butyryl}-piperazine-1-carboxylic acid butyl ester], the IC50 was found to be 5.9 nM.

Regarding `CCCCOC(=O)N1CCN(C(=O)[C@H](CP(=O)(O)O)NC(=O)c2cc(NCC)nc(-c3ccccc3)n2)CC1` [Example 16, 4-{(R)-2-[(6-ethylamino-2-phenyl-pyrimidine-4-carbonyl)-amino]-3-phosphono-propionyl}-piperazine-1-carboxylic acid butyl ester], the IC50 was found to be 4.5 nM.

For the molecule `CCCCOC(=O)N1CCN(C(=O)[C@H](CCP(=O)(O)O)NC(=O)c2cc(N3CC[C@H](OC)C3)nc(-c3cccc(F)c3)n2)CC1` [Example 21, 4-((S)-2-{[2-(3-fluoro-phenyl)-6-((S)-3-methoxy-pyrrolidin-1-yl)-pyrimidine-4-carbonyl]-amino}-4-phosphono-butyryl)-piperazine-1-carboxylic acid butyl ester], the IC50 was 78 nM.

Consider `CCCCOC(=O)N1CCN(C(=O)[C@H](CP(=O)(O)O)NC(=O)c2cc(-c3ccc(OC)cc3)nc(-c3ccccc3)n2)CC1` [Example 34, 4-((R)-2-{[6-(4-methoxy-phenyl)-2-phenyl-pyrimidine-4-carbonyl]-amino}-3-phosphono-propionyl)-piperazine-1-carboxylic acid butyl ester], for which the IC50 amounted to 13 nM.

Turning to `CCCCOC(=O)N1CCN(C(=O)[C@H](CP(=O)(O)O)NC(=O)c2cc(C3CC3)nc(-c3ccccc3)n2)CC1` [Example 35, 4-{(R)-2-[(6-cyclopropyl-2-phenyl-pyrimidine-4-carbonyl)-amino]-3-phosphono-propionyl}-piperazine-1-carboxylic acid butyl ester], the IC50 was found to be 14 nM.

`CCCCOC(=O)N1CCN(C(=O)[C@H](CP(=O)(O)O)NC(=O)c2cc(O[C@H]3CCOC3)nc(-c3ccccc3)n2)CC1` [Example 37, 4-[(R)-2-({2-phenyl-6-[(S)-(tetrahydro-furan-3-yl)oxy]-pyrimidine-4-carbonyl}-amino)-3-phosphono-propionyl]-piperazine-1-carboxylic acid butyl ester]: the IC50 worked out at 78 nM.

For the molecule `CCOC(=O)N1CCN(C(=O)[C@H](CP(=O)(O)O)NC(=O)c2cc(N3CC[C@H](OC)C3)nc(-c3ccccc3)n2)CC1C` (stereo partly drawn) [Example 38, 4-((R)-2-{[6-((S)-3-methoxy-pyrrolidin-1-yl)-2-phenyl-pyrimidine-4-carbonyl]-amino}-3-phosphono-propionyl)-2-methyl-piperazine-1-carboxylic acid ethyl ester], the IC50 was determined as 61 nM.

Take `CCCCOC(=O)N1CCN(C(=O)[C@H](CP(=O)(O)O)NC(=O)c2cc(CCCOC)nc(-c3ccccc3)n2)CC1` [Example 45, 4-((R)-2-{[6-(3-methoxy-propyl)-2-phenyl-pyrimidine-4-carbonyl]-amino}-3-phosphono-propionyl)-piperazine-1-carboxylic acid butyl ester]: the IC50 is 5.5 nM.

Take `CCCCOC(=O)N1CCN(C(=O)[C@H](CCP(=O)(OCOC(=O)C(C)(C)C)OCOC(=O)C(C)(C)C)NC(=O)c2cc(N3CC[C@H](OC)C3)nc(-c3ccccc3)n2)CC1` [Example 48, 4-((S)-4-[bis-(2,2-dimethyl-propionyloxymethoxy)-phosphoryl]-2-{[6-((S)-3-methoxy-pyrrolidin-1-yl)-2-phenyl-pyrimidine-4-carbonyl]-amino}-butyryl)-piperazine-1-carboxylic acid butyl ester]: the IC50 amounted to 49 nM.

Take `CCCCOC(=O)N1CCN(C(=O)C(NC(=O)c2cc(N3CC[C@H](OC)C3)nc(-c3ccccc3)n2)P(=O)(O)O)CC1` (stereo partly drawn) [Example 56, 4-(2-{[6-((S)-3-methoxy-pyrrolidin-1-yl)-2-phenyl-pyrimidine-4-carbonyl]-amino}-2-phosphono-acetyl)-piperazine-1-carboxylic acid butyl ester]: the IC50 stood at 162 nM.

For the molecule `CCOC(=O)N1CCN(C(=O)[C@H](Cc2ccc(CP(=O)(O)O)cc2)NC(=O)c2cc(N3CC[C@H](OC)C3)nc(-c3ccccc3)n2)CC1` [Example 61, 4-[(S)-2-{[6-((S)-3-Methoxy-pyrrolidin-1-yl)-2-phenyl-pyrimidine-4-carbonyl]-amino}-3-(4-phosphonomethyl-phenyl)-propionyl]-piperazine-1-carboxylic acid ethyl ester], the IC50 was determined as 7.5 nM.

As for `CCCCOC(=O)N1CCN(C(=O)[C@@H](CCCP(=O)(O)O)NC(=O)c2cc(N3CC[C@H](OC)C3)nc(-c3ccccc3)n2)CC1` [Example 63, 4-((R)-2-{[6-((S)-3-Methoxy-pyrrolidin-1-yl)-2-phenyl-pyrimidine-4-carbonyl]-amino}-5-phosphono-pentanoyl)-piperazine-1-carboxylic acid butyl ester], the IC50 turned out to be 69 nM.

For `CCOC(=O)N1CCN(C(=O)[C@H](Cc2cccc(P(=O)(O)O)c2)NC(=O)c2cc(N3CC[C@H](OC)C3)nc(-c3ccccc3)n2)CC1` [Example 67, 4-[(S)-2-{[6-((S)-3-Methoxy-pyrrolidin-1-yl)-2-phenyl-pyrimidine-4-carbonyl]-amino}-3-(3-phosphono-phenyl)-propionyl]-piperazine-1-carboxylic acid ethyl ester], the IC50 is 13 nM.

On to `CCCCOC(=O)N1CCN(C(=O)C(NC(=O)c2cc(N3CC[C@H](OC)C3)nc(-c3ccccc3)n2)c2cccc(P(=O)(O)O)c2)CC1` (stereo partly drawn) [Example 71, 4-[2-{[6-((S)-3-Methoxy-pyrrolidin-1-yl)-2-phenyl-pyrimidine-4-carbonyl]-amino}-2-(3-phosphono-phenyl)-acetyl]-piperazine-1-carboxylic acid butyl ester], for which the 50% inhibitory concentration (IC50) was 4.5 nM.

Take `CCCCOC(=O)N1CCN(C(=O)[C@H](CP(=O)(O)O)NC(=O)c2cc(N3CCN(C)CC3)nc(-c3ccccc3)n2)CC1` [Example 73, 4-((R)-2-{[6-(4-Methyl-piperazin-1-yl)-2-phenyl-pyrimidine-4-carbonyl]-amino}-3-phosphono-propionyl)-piperazine-1-carboxylic acid butyl ester]: the IC50 was found to be 3 nM.

`CCCCOC(=O)N1CCN(C(=O)[C@H](CCP(=O)(NCC(=O)OCC)NCC(=O)OCC)NC(=O)c2cc(N3CC[C@H](OC)C3)nc(-c3ccccc3)n2)CC1` [Example 75, N,N′-Bis-(ethoxycarbonylmethyl)-3-{(S)-[6-((S)-3-methoxy-pyrrolidin-1-yl)-2-phenyl-pyrimidine-4-carbonyl]-amino}-4-oxo-4-(4-butoxy-carbonyl-piperazin-1-yl)-butyl-phosphonic acid diamide]: the IC50 came out at 308 nM.

As to `CCCCOC(=O)N1CCN(C(=O)[C@H](CP(=O)(OCOC(=O)CCC)OCOC(=O)CCC)NC(=O)c2cc(N3CC[C@H](OC)C3)nc(-c3ccccc3)n2)CC1` [Example 78, 4-((R)-3-(Bis-butyryloxymethoxy-phosphoryl)-2-{[6-((S)-3-methoxy-pyrrolidin-1-yl)-2-phenyl-pyrimidine-4-carbonyl]-amino}-propionyl)-piperazine-1-carboxylic acid butyl ester], the concentration for half-maximal inhibition (IC50) was 7 nM.

For the molecule `CCCCOC(=O)N1CCN(C(=O)[C@H](CP(=O)(N[C@@H](Cc2ccccc2)C(=O)OC)N[C@@H](Cc2ccccc2)C(=O)OC)NC(=O)c2cc(N3CC[C@H](OC)C3)nc(-c3ccccc3)n2)CC1` [Example 87, N,N′-Bis-((S)-1-methoxycarbonyl-2-phenyl-ethyl)-2-{(R)-[6-((S)-3-methoxy-pyrrolidin-1-yl)-2-phenyl-pyrimidine-4-carbonyl]-amino}-3-oxo-3-(4-butoxy-carbonyl-piperazin-1-yl)-propyl-phosphonic acid diamide], the IC50 is 11 nM.

One may read the IC50 as the point on the concentration scale where inhibition reaches its midpoint.
